Assay results reported in US20130289070A1, “Use of Levocabastine for Modulating Generation of Pro-Inflammatory Cytokines” (Bausch & Lomb Incorporated, priority 2007, published 2013).

Test system: EoL-1 (human eosinophilic leukaemia cell line) cells
Assay: TNF-α-induced cytokine release, differentiated and non-differentiated EoL-1 cells
Format: cell-based
Description: EoL-1 (human eosinophilic leukaemia cell line) cells (Saito et al., 1985; Mayumi, 1992) were maintained in RPMI-1640 medium with L-glutamine supplemented with 10% (v/v) FBS at 37° C. in a humidified atmosphere with 5% CO2. Where indicated, 24 h before the experiment 25 ng/mL PMA ((phorbol 12-myristate 13-acetate, purchased from Sigma Aldrich) was added to the medium to induce eosinophil granulation and differentiation (Ohtsu et al., 1993; Zimmermann et al., 2000). Half-million cells were aliquoted per point in a 24 well plate; each experiment was performed in triplicate and carried out in parallel with eosinophils differentiated and non differentiated with PMA (25 ng/mL, 24 h). Cells were suspended in low serum medium (RPMI-1640, 0.1% (v/v) FBS). TNF-α was used to induce cytokine secretion as previously described by Steube et al. (2000), and the net release was obtained by comparison to the basal (non-TNF-α treated). In the first experiment we evaluated the concentration and time relation between TNF-α stimulation and cytokine release. […] An aliquot of 150 μL of supernate was collected for cytokines' analysis. […] Differentiated and non-differentiated EoL-1 cells were exposed from 0.1 to 2.3 mM levocabastine ([…]Levocabastine 0.05% solution eye drops containing cyclodextrins, without benzalkonium chloride), and aliquots of the supernates were collected after 12 and 24 h. The content of cytokines at time zero was estimated by treating the cells with 400 nM calcimycin (A-23187), which is a cytolytic agent that frees all the mediators from the cytoplasmic compartment. In addition, for each experiment we tested the effect of the vehicle, which was added to the wells in a concentration equal to the maximum amount used for drug dilution. Samples (supernates 12 and 24 h) in triplicate were analyzed using Luminex 200™ (Luminex, Austin, Tex.) and Beadview software v1.0 (Upstate Cell Signaling Solutions, Temecula, Calif.). All data are presented as mean±SEM for the indicated number of experiments. Statistical significance was determined by Newman-Keuls test after ANOVA using GraphPad Prism (version 3.0; GraphPad Software Inc., San Diego, Calif., USA).

[1] = TNF-α challenge, text summary of Tables T-1, T-2
[2] = overall conclusion, in a concentration-dependent manner
[3] = overall conclusion, in a concentration-dependent way

C[C@@H]1CN([C@H]2CC[C@](C#N)(c3ccc(F)cc3)CC2)CC[C@]1(C(=O)O)c1ccccc1 [Levocabastine, levocabastine]
release of IL-12p40 induced by TNF-α (2 mM, TNF-α 10 ng, 24 h, without PMA or differentiated with it, not influenced by VCAM-1 or fibronectin (FIG. 10)): effective in reducing the release
release of VEGF induced by TNF-α (2 mM, TNF-α 10 ng, 24 h, without PMA or differentiated with it, not influenced by VCAM-1 or fibronectin (FIG. 14)): effective in reducing the release
release of IL-12 P40 induced by TNF-α (2 mM, TNF-α 5, 10 and 20 ng, 12 h, without PMA or differentiated with it (FIG. 5)): capable of reducing the release
release of VEGF induced by TNF-α (2 mM, TNF-α 5, 10 and 20 ng, 24 h, without PMA or differentiated with it (FIG. 6)): capable of reducing the release
release of VEGF induced by TNF-α (2 mM, TNF-α 5, 10 and 20 ng, 24 h, without PMA or differentiated with it (FIG. 8)): capable of reducing the release
release of IP-10 induced by TNF-α (0.1, 0.5 and 1.0 mM, 12 h, without PMA or differentiated with it (FIG. 1)): capable to prevent the release
release of VEGF induced by TNF-α (0.1, 0.5 and 1.0 mM, 24 h, without PMA or differentiated with it (FIG. 4)): capable to prevent the release
VEGF release (FIG. 14) (PMA differentiated and indifferentiated EoL-1 cells, after TNF-α challenge): able to reduce
release of IL-1β [1]: significantly reduce
release of IP-10 [1]: significantly reduce
TNF-α-induced release of IL-8 (overall conclusion): statistical significant reduction
TNF-α-induced release of IL-12p40 (overall conclusion): statistical significant reduction
TNF-α-induced release of VEGF (overall conclusion): statistical significant reduction
cytokine release, general effect (overall conclusion, following TNF-α stimulation): concentration-related reduction
release of IL1-ra [2]: significantly reduced
release of IL-1β [2]: significantly reduced
release of IP-10 [2]: significantly reduced
secretion of MIP-1α [3]: increasing the secretion
secretion of RANTES [3]: increasing the secretion
